Results taken from PubChem BioAssay (NCI).
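Briefly, cells in 96-well plates were exposed to five compound concentrations for 48 h, and endpoints were estimated by linear interpolation. At the TGI there is no net growth.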

Legend:
Assay in all cases: inhibition of tumour cell growth, NCI panel, 48 h
786-0 renal = test system: 786-0 renal
A498 renal = test system: A498 renal
A549 NSCLC = test system: A549 NSCLC
ACHN renal = test system: ACHN renal
BT-549 breast = test system: BT-549 breast
CAKI-1 renal = test system: CAKI-1 renal
CCRF-CEM leukemia = test system: CCRF-CEM leukemia
COLO 205 colon = test system: COLO 205 colon
DU-145 prostate = test system: DU-145 prostate
EKVX NSCLC = test system: EKVX NSCLC
HCC-2998 colon = test system: HCC-2998 colon
HCT-116 colon = test system: HCT-116 colon
HCT-15 colon = test system: HCT-15 colon
HOP-62 NSCLC = test system: HOP-62 NSCLC
HOP-92 NSCLC = test system: HOP-92 NSCLC
HT29 colon = test system: HT29 colon
IGROV1 ovarian = test system: IGROV1 ovarian
K-562 leukemia = test system: K-562 leukemia
KM12 colon = test system: KM12 colon
LOX IMVI melanoma = test system: LOX IMVI melanoma
M14 melanoma = test system: M14 melanoma
MALME-3M melanoma = test system: MALME-3M melanoma
MCF7 breast = test system: MCF7 breast
MDA-MB-231 breast = test system: MDA-MB-231 breast
MDA-MB-435 = test system: MDA-MB-435
MDA-N = test system: MDA-N
MOLT-4 leukemia = test system: MOLT-4 leukemia
NCI-H226 lung = test system: NCI-H226 lung
NCI-H23 lung = test system: NCI-H23 lung
NCI-H460 lung = test system: NCI-H460 lung
NCI-H522 lung = test system: NCI-H522 lung
NCI/ADR-RES ovarian = test system: NCI/ADR-RES ovarian
OVCAR-3 ovarian = test system: OVCAR-3 ovarian
OVCAR-4 ovarian = test system: OVCAR-4 ovarian
OVCAR-5 ovarian = test system: OVCAR-5 ovarian
PC-3 prostate = test system: PC-3 prostate
RPMI-8226 leukemia = test system: RPMI-8226 leukemia
RXF 393 renal = test system: RXF 393 renal
SF-268 CNS = test system: SF-268 CNS
SF-295 CNS = test system: SF-295 CNS
SF-539 CNS = test system: SF-539 CNS
SK-MEL-2 melanoma = test system: SK-MEL-2 melanoma
SK-MEL-28 melanoma = test system: SK-MEL-28 melanoma
SK-MEL-5 melanoma = test system: SK-MEL-5 melanoma
SK-OV-3 ovarian = test system: SK-OV-3 ovarian
SN12C renal = test system: SN12C renal
SNB-19 CNS = test system: SNB-19 CNS
SNB-75 CNS = test system: SNB-75 CNS
SR leukemia = test system: SR leukemia
SW-620 colon = test system: SW-620 colon
T-47D breast = test system: T-47D breast
TK-10 renal = test system: TK-10 renal
U251 CNS = test system: U251 CNS
UACC-257 melanoma = test system: UACC-257 melanoma
UACC-62 melanoma = test system: UACC-62 melanoma
UO-31 renal = test system: UO-31 renal
HL-60(TB) leukemia = test system: HL-60(TB) leukemia
HS 578T breast = test system: HS 578T breast
OVCAR-8 ovarian = test system: OVCAR-8 ovarian

## Cc1oc(N)c(S(=O)(=O)/C(C#N)=C/c2ccccc2[N+](=O)[O-])c1C
786-0 renal
  TGI: 92.6 µM
A498 renal
  TGI: > 100 µM
A549 NSCLC
  TGI: 59.7 µM
ACHN renal
  TGI: > 100 µM
BT-549 breast
  TGI: 48.2 µM
CAKI-1 renal
  TGI: 53.9 µM
CCRF-CEM leukemia
  TGI: 68.5 µM
COLO 205 colon
  TGI: 40.3 µM
DU-145 prostate
  TGI: > 100 µM
EKVX NSCLC
  TGI: > 100 µM
HCC-2998 colon
  TGI: > 100 µM
HCT-116 colon
  TGI: 78.5 µM
HCT-15 colon
  TGI: > 100 µM
HOP-62 NSCLC
  TGI: > 100 µM
HOP-92 NSCLC
  TGI: > 100 µM
HT29 colon
  TGI: 35.1 µM
IGROV1 ovarian
  TGI: > 100 µM
K-562 leukemia
  TGI: 60.4 µM
KM12 colon
  TGI: 73.2 µM
LOX IMVI melanoma
  TGI: 28.5 µM
M14 melanoma
  TGI: 41.4 µM
MALME-3M melanoma
  TGI: > 100 µM
MCF7 breast
  TGI: > 100 µM
MDA-MB-231 breast
  TGI: 82.6 µM
MDA-MB-435
  TGI: > 100 µM
MDA-N
  TGI: 46.9 µM
MOLT-4 leukemia
  TGI: 62.5 µM
NCI-H226 lung
  TGI: > 100 µM
NCI-H23 lung
  TGI: 79.4 µM
NCI-H460 lung
  TGI: > 100 µM
NCI-H522 lung
  TGI: 41 µM
NCI/ADR-RES ovarian
  TGI: > 100 µM
OVCAR-3 ovarian
  TGI: 46.3 µM
OVCAR-4 ovarian
  TGI: > 100 µM
OVCAR-5 ovarian
  TGI: 39.2 µM
PC-3 prostate
  TGI: 99 µM
RPMI-8226 leukemia
  TGI: 75.2 µM
RXF 393 renal
  TGI: 52.8 µM
SF-268 CNS
  TGI: > 100 µM
SF-295 CNS
  TGI: > 100 µM
SF-539 CNS
  TGI: 61.4 µM
SK-MEL-2 melanoma
  TGI: > 100 µM
SK-MEL-28 melanoma
  TGI: 64.2 µM
SK-MEL-5 melanoma
  TGI: 38.1 µM
SK-OV-3 ovarian
  TGI: > 100 µM
SN12C renal
  TGI: 47.8 µM
SNB-19 CNS
  TGI: 77.4 µM
SNB-75 CNS
  TGI: > 100 µM
SR leukemia
  TGI: 40.2 µM
SW-620 colon
  TGI: 63.1 µM
T-47D breast
  TGI: 66.8 µM
TK-10 renal
  TGI: > 100 µM
U251 CNS
  TGI: 36.3 µM
UACC-257 melanoma
  TGI: > 100 µM
UACC-62 melanoma
  TGI: 46.9 µM
UO-31 renal
  TGI: 30.6 µM

## O=Cc1c2c(cc3c1CC1(C3)Cc3cc4c(c(C=O)c3C1)CCC4)CCC2
786-0 renal
  TGI: > 100 µM
A498 renal
  TGI: 84.7 µM
A549 NSCLC
  TGI: 87.5 µM
ACHN renal
  TGI: 43.6 µM
CCRF-CEM leukemia
  TGI: 58.4 µM
COLO 205 colon
  TGI: 57.4 µM
EKVX NSCLC
  TGI: > 100 µM
HCC-2998 colon
  TGI: > 100 µM
HCT-116 colon
  TGI: 33.7 µM
HCT-15 colon
  TGI: > 100 µM
HL-60(TB) leukemia
  TGI: 55.7 µM
HOP-62 NSCLC
  TGI: 51.4 µM
HOP-92 NSCLC
  TGI: 56.5 µM
HS 578T breast
  TGI: 80.5 µM
HT29 colon
  TGI: > 100 µM
IGROV1 ovarian
  TGI: > 100 µM
K-562 leukemia
  TGI: 63.7 µM
LOX IMVI melanoma
  TGI: 51.1 µM
M14 melanoma
  TGI: > 100 µM
MALME-3M melanoma
  TGI: 89.3 µM
MCF7 breast
  TGI: > 100 µM
MDA-MB-231 breast
  TGI: 70.1 µM
MDA-MB-435
  TGI: > 100 µM
MDA-N
  TGI: > 100 µM
MOLT-4 leukemia
  TGI: 48.7 µM
NCI-H226 lung
  TGI: > 100 µM
NCI-H23 lung
  TGI: > 100 µM
NCI-H522 lung
  TGI: > 100 µM
NCI/ADR-RES ovarian
  TGI: > 100 µM
OVCAR-3 ovarian
  TGI: > 100 µM
OVCAR-4 ovarian
  TGI: 72.1 µM
OVCAR-5 ovarian
  TGI: > 100 µM
OVCAR-8 ovarian
  TGI: > 100 µM
PC-3 prostate
  TGI: > 100 µM
RPMI-8226 leukemia
  TGI: > 100 µM
RXF 393 renal
  TGI: > 100 µM
SF-295 CNS
  TGI: > 100 µM
SF-539 CNS
  TGI: > 100 µM
SK-MEL-2 melanoma
  TGI: 50.8 µM
SK-MEL-5 melanoma
  TGI: > 100 µM
SK-OV-3 ovarian
  TGI: > 100 µM
SN12C renal
  TGI: > 100 µM
SR leukemia
  TGI: 73 µM
T-47D breast
  TGI: > 100 µM
TK-10 renal
  TGI: 98.8 µM
U251 CNS
  TGI: 38.4 µM
UACC-257 melanoma
  TGI: > 100 µM
UACC-62 melanoma
  TGI: 62.3 µM
UO-31 renal
  TGI: 6.38 µM
